Source: ChEMBL document CHEMBL3108683, “An Accessible Chiral Linker to Enhance Potency and Selectivity of Neuronal Nitric Oxide Synthase Inhibitors” (ACS Med Chem Lett, 2014)

Experiments:
[1] = biological target: T1, Nitric oxide synthase 3 (Bos taurus, UniProt P29473); test: Inhibition of bovine recombinant eNOS overexpressed in Escherichia coli using L-arginine as substrate assessed as formation of NO-hemoglobin complex measured up to 180 seconds by hemoglobin capture assay
T1 sequence (P29473 whole entry): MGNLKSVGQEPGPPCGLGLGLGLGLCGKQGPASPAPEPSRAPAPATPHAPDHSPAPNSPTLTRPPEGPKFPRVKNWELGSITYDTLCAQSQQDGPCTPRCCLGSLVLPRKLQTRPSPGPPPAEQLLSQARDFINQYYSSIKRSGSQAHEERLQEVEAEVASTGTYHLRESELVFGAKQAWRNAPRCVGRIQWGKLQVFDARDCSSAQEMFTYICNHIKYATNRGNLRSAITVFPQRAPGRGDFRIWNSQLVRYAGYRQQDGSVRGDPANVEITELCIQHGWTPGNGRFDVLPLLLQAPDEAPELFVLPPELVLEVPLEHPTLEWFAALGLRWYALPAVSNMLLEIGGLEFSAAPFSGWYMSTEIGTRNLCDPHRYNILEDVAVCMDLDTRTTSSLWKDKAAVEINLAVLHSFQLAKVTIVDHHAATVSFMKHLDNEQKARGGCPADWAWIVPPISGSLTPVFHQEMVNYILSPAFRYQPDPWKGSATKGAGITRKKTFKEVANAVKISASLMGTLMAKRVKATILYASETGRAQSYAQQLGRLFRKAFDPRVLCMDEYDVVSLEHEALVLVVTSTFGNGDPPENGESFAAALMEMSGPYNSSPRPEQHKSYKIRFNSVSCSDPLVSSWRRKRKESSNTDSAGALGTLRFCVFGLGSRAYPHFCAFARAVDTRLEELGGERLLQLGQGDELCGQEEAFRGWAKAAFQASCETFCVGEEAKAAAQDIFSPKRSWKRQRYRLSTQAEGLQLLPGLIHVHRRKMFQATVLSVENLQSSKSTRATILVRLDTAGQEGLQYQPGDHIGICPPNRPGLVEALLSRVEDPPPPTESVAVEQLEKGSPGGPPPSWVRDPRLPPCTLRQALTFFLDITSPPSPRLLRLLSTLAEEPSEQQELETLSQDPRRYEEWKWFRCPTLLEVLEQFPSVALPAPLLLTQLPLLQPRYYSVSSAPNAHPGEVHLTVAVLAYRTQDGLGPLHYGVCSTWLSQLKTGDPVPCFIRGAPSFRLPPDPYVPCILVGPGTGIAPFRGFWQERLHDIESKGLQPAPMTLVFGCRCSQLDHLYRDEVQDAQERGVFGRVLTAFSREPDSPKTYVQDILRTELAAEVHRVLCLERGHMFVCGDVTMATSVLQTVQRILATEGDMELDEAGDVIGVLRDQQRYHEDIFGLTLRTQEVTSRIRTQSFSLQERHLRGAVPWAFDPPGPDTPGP

[2] = biological target: T2, Nitric oxide synthase, inducible (Mus musculus, UniProt P29477); test: Inhibition of mouse recombinant iNOS overexpressed in Escherichia coli using L-arginine as substrate assessed as formation of NO-hemoglobin complex measured up to 180 seconds by hemoglobin capture assay
T2 sequence (P29477 whole entry): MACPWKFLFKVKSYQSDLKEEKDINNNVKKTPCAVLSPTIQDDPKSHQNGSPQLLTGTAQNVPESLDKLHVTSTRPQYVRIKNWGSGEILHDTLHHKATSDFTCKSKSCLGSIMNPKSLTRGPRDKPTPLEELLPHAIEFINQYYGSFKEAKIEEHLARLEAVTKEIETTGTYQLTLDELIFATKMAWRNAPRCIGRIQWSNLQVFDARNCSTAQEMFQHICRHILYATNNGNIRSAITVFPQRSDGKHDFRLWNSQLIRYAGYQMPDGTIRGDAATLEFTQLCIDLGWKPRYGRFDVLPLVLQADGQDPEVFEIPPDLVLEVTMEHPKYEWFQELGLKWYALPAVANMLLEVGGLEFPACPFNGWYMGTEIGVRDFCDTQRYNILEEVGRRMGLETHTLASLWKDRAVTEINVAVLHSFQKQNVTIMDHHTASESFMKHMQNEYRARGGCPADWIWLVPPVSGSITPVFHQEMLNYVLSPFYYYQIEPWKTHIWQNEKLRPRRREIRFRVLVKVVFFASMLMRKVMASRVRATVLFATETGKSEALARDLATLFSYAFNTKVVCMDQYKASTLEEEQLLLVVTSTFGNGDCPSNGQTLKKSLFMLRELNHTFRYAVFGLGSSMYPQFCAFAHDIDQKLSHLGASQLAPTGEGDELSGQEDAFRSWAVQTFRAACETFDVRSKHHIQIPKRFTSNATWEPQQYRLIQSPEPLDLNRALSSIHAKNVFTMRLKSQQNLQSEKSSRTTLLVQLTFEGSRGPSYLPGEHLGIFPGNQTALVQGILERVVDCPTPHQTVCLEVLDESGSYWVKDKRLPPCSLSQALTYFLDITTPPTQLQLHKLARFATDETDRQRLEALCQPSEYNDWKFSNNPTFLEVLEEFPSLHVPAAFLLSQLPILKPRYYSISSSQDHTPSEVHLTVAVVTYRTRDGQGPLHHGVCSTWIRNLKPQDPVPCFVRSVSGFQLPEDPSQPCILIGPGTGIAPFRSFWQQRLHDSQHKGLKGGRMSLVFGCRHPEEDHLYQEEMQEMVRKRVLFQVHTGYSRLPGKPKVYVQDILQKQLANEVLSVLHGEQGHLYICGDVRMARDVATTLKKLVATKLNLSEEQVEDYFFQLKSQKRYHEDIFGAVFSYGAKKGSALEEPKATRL

[3] = biological target: Nitric oxide synthase 1 (Rattus norvegicus, UniProt P29476); test: Inhibition of rat recombinant nNOS overexpressed in Escherichia coli using L-arginine as substrate assessed as formation of NO-hemoglobin complex measured up to 180 seconds by hemoglobin capture assay
Sequence of Nitric oxide synthase 1 (P29476 whole entry): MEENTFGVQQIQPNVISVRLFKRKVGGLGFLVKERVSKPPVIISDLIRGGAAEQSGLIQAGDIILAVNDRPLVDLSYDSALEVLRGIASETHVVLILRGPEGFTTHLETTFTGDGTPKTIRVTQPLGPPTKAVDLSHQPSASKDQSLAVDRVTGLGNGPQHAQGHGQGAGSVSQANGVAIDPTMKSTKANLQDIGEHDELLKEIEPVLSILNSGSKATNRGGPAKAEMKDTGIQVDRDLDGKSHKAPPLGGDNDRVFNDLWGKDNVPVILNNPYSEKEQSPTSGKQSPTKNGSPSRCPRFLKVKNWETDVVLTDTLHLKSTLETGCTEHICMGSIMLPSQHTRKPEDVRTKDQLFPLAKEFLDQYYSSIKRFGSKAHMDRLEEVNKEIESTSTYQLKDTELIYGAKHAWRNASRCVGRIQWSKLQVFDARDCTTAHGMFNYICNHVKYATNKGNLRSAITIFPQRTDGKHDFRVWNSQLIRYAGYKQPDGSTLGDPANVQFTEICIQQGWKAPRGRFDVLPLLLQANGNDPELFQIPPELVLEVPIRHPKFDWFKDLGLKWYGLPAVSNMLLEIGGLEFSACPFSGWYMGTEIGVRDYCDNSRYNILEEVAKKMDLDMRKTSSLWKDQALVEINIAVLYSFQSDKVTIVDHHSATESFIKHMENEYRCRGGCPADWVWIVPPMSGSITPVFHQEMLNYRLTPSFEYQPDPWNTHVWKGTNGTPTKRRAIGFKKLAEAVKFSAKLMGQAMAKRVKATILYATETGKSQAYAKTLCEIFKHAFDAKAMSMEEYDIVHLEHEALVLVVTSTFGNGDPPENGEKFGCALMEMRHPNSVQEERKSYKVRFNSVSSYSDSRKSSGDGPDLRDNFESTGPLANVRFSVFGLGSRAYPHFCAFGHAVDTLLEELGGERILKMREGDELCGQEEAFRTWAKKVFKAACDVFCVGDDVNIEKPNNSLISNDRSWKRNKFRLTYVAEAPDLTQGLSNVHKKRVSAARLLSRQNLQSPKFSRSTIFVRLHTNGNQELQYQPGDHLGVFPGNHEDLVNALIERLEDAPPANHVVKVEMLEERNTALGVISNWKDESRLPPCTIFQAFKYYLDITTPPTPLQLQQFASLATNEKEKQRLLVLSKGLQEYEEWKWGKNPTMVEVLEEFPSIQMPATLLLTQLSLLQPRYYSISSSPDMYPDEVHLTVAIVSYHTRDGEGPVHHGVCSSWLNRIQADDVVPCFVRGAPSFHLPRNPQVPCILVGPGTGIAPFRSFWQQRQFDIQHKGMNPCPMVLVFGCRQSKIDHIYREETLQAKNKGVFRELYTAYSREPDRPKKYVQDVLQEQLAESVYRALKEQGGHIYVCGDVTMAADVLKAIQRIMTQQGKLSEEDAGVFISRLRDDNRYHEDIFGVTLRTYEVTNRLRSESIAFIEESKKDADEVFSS

## Cc1cc(N)nc(COC[C@H]2C[C@H](OCc3cc(C)cc(N)n3)CN2)c1
[1]
  Ki: 6.73 µM
[2]
  Ki: 2870 nM
[3]
  Ki: 9.7 nM
